Blank lines part the entries; values can stand above or below the compound they belong to.
How the values were obtained:
[1] = target: T1, angiotensin-converting enzyme isolated from lungs of adult male rabbits (Oryctolagus cuniculus, UniProt P12822); assay: in vitro inhibition of the angiotensin-converting enzyme (hippuryl-histidyl-leucine substrate); type: biochemical; conditions: rabbit lung enzyme, 37° for 30 minutes
T1 construct: angiotensin-converting enzyme isolated from lungs of adult male rabbits; from tissue; host or cells: lungs of adult male rabbits
T1 sequence (P12822 34-1310): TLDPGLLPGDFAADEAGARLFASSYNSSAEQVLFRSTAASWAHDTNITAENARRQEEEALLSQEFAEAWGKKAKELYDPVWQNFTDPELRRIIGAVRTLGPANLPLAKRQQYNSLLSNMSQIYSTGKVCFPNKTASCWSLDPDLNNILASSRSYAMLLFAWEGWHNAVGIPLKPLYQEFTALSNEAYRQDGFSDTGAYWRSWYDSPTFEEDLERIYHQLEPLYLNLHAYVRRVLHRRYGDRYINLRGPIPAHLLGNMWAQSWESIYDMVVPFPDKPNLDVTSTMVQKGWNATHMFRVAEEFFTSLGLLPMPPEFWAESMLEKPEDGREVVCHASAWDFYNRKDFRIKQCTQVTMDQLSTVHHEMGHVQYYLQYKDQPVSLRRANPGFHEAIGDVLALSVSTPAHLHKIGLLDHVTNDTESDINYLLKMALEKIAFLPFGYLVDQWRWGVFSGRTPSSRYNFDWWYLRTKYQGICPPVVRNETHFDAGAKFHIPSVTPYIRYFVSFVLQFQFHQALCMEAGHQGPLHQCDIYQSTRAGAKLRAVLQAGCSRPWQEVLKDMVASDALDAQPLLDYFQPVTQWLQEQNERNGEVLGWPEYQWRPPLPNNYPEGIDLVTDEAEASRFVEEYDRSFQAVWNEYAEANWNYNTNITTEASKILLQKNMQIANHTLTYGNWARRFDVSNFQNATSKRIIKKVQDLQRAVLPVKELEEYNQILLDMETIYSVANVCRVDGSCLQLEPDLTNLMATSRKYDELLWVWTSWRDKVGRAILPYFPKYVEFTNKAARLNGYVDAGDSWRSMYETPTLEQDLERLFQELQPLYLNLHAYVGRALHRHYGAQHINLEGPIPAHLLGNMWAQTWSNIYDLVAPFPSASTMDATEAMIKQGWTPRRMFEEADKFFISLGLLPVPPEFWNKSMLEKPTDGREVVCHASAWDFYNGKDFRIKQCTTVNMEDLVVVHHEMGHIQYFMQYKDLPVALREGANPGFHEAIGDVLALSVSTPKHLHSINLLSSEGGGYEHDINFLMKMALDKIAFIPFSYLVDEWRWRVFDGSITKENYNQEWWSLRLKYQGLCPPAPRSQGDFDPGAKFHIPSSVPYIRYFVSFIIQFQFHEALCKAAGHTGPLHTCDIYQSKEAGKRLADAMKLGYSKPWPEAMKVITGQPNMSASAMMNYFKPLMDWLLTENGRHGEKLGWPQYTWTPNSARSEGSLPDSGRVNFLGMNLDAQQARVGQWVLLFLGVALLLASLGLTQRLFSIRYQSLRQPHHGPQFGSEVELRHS
Protocol: Biophys. Acta 293, 451 (1973). According to this method, said compounds are dissolved at about 1 mM concentrations in phosphate buffer, externally cooled with ice. To these solutions various μl of histidyl-leucine in phosphate buffer are added, followed by 100 μl of 5 mM hippuryl-histidyl-leucine in phosphate buffer and 50 μl of the angiotensin-converting enzyme isolated from lungs of adult male rabbits, which is freshly prepared in Tris buffer containing potassium and magnesium chloride, as well as sucrose. Said solutions are incubated at 37° for 30 minutes and combined with 0.75 m- of 0.6 N aqueous sodium hydroxide to stop further reaction. Then 100 μl of o-phthalaldehyde are added at room temperature, and 10 minutes later 100 μl of 6N hydrochloric acid are also added. These samples are read against water in a spectrophotometer set at 360 nm, and the optical densities thereof estimated. They are corrected for the standard curve via a conversion factor expressing nanomoles of histidyl-leucine formed during said 30 minute incubation period. The results are plotted against drug concentration to determine the IC50, i.e., the drug concentration which gives half the activity of the control sample containing no drug. Again, said representative members of the compounds of this invention are very effective in this in vitro test system.

[2] = test system: spontaneous hypertensive rat; assay: in vivo lowering effect on blood pressure and heart rate in hypertensive rats; conditions: dose of 10 mg/kg p.o. or lower
Source text: This is demonstrable by in vivo or in vitro animal tests, using advantageously mammals, e.g., rats, cats, dogs or isolated organs thereof, as test objects. The animals may either be normotensive or hypertensive e.g., genetically hypertensive rats, or renal hypertensive rats and dogs, and sodium-depleted dogs. Said compounds can be applied to them enterally or parenterally, advantageously orally or intravenously, for example within gelatin capsules or in the form of starch suspensions or aqueous solutions, respectively. The applied dosage may range between about 0.01 and 50 mg/kg/day, preferably between about 0.1 and 25 mg/kg/day, advantageously between about 0.1 and 10 mg/kg/day.
The in vivo lowering effect on the blood pressure is recorded either directly by means of a catheter, for example placed in the dog's femoral artery, or indirectly by sphygmomanometry at the rat's tail, and a transducer, expressing the blood pressure prior and after dosing in mm Hg. Thus, for example, the representative members of the compounds of this invention, illustrated by the examples herein, are effective in hypertensive rats and at p.o. doses as low or lower than 10 mg/kg/day.

[3] = test system: angiotensin I converting enzyme; assay: inhibition of the angiotensin I pressor response in anesthetized normotensive rats; type: in vivo, rat; conditions: intravenous dose as low as 0.1 mg/kg
Protocol: The enzyme renin, normally causes specific hydrolysis of the circulating protein renin-substrate. This hydrolysis generates angiotensin I, which is further hydrolyzed by the action of said converting enzyme to the potent vasoconstrictor angiotensin II. The inhibition of said enzyme prevents the generation of angiotensin II from I and, therefore, attenuates any pressure response following an angiotensin I challenge.
The corresponding in vivo test is performed with male, normotensive rats, which are anesthetized with 100-120 mg/kg i.p. of sodium ethyl-(1-methylpropyl)-malonylthiourea. A femoral artery and saphenous vein are cannulated for direct blood pressure measurement and i.v. administration of angiotensin I and compounds of this invention. After the basal blood pressure is stabilized, pressor responses to 3 challenges of 0.33 μg/kg of angiotension I i.v. , in 5 minute intervals, are obtained. Such pressure responses are again obtained 5, 10, 15, 30 and 60 minutes after either i.v. or p.o. administration (stomach tube) of the compounds to be tested, and compared with the initial responses. Any observed decrease of said pressor response is an indication of angiotensin I converting enzyme inhibition, ranging up to 80% or greater after 10 mg/kg i.v., or lower doses, which decrease may be sustained up to 60 minutes.

IC50 [1]: ~7 nM
Compound: O=C(N[C@H](CCC(=O)N1c2ccccc2C[C@H]1C(=O)O)C(=O)O)OCc1ccccc1 [Example 1, 1-(N-Benzyloxycarbonyl-γ-R-glutamyl)indoline-2-S-carboxylic acid]
decrease of heart rate [2]: decrease the heart rate
lowering of blood pressure [2]: lower blood pressure
inhibition of the pressor response following angiotensin I challenge [3]: about 70%

Compound: O=C(N[C@H](CCC(=O)N1c2ccccc2C[C@H]1C(=O)O)C(=O)O)c1cccnc1 [Example 5, 1-(N-Nicotinoyl-γ-R-glutamyl)-indoline-2S-carboxylic acid]
decrease of heart rate [2]: decrease the heart rate
lowering of blood pressure [2]: lower blood pressure

Reference: patent US4678800A, “Gamma-r-glutamoyl derivatives” (Ciba-Geigy Corporation, priority 1984, dated 1987)
